Values joined by “and” are separate entries in the source; they are usually repeats but may differ in a detail not shown here. Equal entries are not always repeated.
Assays:
Assay in all cases: Affinity-purification and mass spectrometry (AP-MS) chemical proteomics, all proteins;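 on Difference: 200 µM free competitor with 20 µM biotin probe overnight in lysate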
Format in all cases: binding
[1] = target: T1, proteins displaced from immobilized biotin-Cmpd 1 pulldowns (U2OS cell lysate) (Homo sapiens, UniProt Q9Y3C1); conditions: GN=NOP16 (Q9Y3C1)
T1 construct: endogenous in cells; host or cells: U2OS

[2] = target: T2, proteins displaced from immobilized biotin-Cmpd 1 pulldowns (U2OS cell lysate) (Homo sapiens, UniProt Q6UWP8); conditions: GN=SBSN (Q6UWP8)
T2 construct: endogenous in cells; host or cells: U2OS

[3] = target: T3, proteins displaced from immobilized biotin-Cmpd 1 pulldowns (U2OS cell lysate) (Homo sapiens, UniProt Q9NZM5); conditions: GN=NOP53 (Q9NZM5)
T3 construct: endogenous in cells; host or cells: U2OS

[4] = target: T4, proteins displaced from immobilized biotin-Cmpd 1 pulldowns (U2OS cell lysate) (Homo sapiens, UniProt Q86UE4); conditions: GN=MTDH (Q86UE4)
T4 construct: endogenous in cells; host or cells: U2OS

[5] = target: T5, proteins displaced from immobilized biotin-Cmpd 1 pulldowns (U2OS cell lysate) (Homo sapiens, UniProt Q9UNF1); conditions: GN=MAGED2 (Q9UNF1)
T5 construct: endogenous in cells; host or cells: U2OS

[6] = target: T6, proteins displaced from immobilized biotin-Cmpd 1 pulldowns (U2OS cell lysate) (Homo sapiens, UniProt O94925); conditions: GN=GLS (O94925)
T6 construct: endogenous in cells; host or cells: U2OS

[7] = target: T7, proteins displaced from immobilized biotin-Cmpd 1 pulldowns (U2OS cell lysate) (Homo sapiens, UniProt P28370); conditions: GN=SMARCA1 (P28370)
T7 construct: endogenous in cells; host or cells: U2OS

[8] = target: T8, proteins displaced from immobilized biotin-Cmpd 1 pulldowns (U2OS cell lysate) (Homo sapiens, UniProt P52948); conditions: GN=NUP98 (P52948)
T8 construct: endogenous in cells; host or cells: U2OS

[9] = target: T9, proteins displaced from immobilized biotin-Cmpd 1 pulldowns (U2OS cell lysate) (Homo sapiens, UniProt P06748); conditions: GN=NPM1 (P06748)
T9 construct: endogenous in cells; host or cells: U2OS

[10] = target: T10, proteins displaced from immobilized biotin-Cmpd 1 pulldowns (U2OS cell lysate) (Homo sapiens, UniProt Q13765); conditions: GN=NACA (Q13765)
T10 construct: endogenous in cells; host or cells: U2OS

T1 sequence (Q9Y3C1 whole entry): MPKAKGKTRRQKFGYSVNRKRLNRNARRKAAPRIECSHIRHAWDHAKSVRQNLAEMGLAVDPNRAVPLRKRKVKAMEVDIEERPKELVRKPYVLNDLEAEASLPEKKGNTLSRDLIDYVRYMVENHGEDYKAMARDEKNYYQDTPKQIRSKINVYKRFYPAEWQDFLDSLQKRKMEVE
T8 sequence (P52948 whole entry): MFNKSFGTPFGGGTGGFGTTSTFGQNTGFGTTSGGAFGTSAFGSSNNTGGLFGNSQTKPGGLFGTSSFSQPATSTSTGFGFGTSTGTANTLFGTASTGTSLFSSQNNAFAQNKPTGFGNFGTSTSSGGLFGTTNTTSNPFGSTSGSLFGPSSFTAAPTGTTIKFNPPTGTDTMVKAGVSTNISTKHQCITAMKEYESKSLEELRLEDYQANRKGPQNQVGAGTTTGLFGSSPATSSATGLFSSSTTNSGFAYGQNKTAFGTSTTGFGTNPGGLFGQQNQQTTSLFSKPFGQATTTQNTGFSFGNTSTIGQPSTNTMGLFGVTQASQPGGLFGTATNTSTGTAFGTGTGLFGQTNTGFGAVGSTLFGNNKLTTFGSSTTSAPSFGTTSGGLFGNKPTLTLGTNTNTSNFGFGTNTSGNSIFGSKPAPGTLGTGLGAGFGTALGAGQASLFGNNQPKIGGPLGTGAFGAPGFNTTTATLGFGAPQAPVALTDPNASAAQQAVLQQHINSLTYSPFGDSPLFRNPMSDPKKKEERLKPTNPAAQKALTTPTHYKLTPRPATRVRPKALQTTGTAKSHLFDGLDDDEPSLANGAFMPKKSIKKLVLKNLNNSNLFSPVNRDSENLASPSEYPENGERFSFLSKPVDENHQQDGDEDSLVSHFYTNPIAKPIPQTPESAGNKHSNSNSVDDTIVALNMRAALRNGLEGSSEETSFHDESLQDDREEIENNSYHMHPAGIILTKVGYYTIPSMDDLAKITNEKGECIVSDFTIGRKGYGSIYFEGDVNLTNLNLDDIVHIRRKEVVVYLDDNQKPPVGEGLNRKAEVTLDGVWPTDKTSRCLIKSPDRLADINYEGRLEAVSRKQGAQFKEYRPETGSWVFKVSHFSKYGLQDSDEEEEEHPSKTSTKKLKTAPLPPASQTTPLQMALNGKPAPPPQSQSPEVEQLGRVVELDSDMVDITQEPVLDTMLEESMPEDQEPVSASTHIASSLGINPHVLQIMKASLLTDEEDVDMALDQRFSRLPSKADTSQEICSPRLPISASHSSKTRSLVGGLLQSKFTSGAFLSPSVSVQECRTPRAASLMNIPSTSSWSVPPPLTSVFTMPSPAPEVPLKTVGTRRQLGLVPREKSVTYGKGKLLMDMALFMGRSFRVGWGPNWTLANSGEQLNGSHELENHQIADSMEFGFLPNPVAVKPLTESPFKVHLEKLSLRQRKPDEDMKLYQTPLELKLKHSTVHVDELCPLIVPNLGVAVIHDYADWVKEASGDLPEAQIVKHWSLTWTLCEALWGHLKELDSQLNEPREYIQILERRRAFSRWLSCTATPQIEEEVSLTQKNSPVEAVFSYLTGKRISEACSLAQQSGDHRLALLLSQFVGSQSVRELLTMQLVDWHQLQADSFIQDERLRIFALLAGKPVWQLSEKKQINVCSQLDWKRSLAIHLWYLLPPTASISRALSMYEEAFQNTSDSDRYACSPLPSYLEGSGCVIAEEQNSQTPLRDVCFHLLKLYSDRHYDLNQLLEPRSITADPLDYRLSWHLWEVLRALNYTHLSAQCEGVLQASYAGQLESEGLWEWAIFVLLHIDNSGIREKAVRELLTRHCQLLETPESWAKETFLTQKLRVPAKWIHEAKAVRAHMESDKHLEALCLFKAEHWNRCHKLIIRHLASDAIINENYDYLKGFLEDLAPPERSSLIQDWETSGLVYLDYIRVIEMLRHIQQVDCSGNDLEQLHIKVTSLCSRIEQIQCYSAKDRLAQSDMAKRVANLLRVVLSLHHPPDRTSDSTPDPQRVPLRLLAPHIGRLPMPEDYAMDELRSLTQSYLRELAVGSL
T4 sequence (Q86UE4 whole entry): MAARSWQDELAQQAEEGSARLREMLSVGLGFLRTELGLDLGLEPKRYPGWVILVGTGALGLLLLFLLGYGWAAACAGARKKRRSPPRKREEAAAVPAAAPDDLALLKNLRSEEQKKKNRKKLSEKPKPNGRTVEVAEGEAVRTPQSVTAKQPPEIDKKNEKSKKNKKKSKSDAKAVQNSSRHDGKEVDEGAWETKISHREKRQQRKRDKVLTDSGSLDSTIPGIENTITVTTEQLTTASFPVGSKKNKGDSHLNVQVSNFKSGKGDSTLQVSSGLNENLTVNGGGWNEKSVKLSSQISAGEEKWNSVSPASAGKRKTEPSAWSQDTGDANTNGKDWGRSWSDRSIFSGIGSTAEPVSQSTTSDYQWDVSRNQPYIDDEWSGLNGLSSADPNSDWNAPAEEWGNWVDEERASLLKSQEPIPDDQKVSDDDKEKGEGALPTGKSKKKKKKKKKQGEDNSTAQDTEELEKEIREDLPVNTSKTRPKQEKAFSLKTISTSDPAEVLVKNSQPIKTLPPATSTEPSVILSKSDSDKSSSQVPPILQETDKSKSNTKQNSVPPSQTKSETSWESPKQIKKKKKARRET
T7 sequence (P28370 whole entry): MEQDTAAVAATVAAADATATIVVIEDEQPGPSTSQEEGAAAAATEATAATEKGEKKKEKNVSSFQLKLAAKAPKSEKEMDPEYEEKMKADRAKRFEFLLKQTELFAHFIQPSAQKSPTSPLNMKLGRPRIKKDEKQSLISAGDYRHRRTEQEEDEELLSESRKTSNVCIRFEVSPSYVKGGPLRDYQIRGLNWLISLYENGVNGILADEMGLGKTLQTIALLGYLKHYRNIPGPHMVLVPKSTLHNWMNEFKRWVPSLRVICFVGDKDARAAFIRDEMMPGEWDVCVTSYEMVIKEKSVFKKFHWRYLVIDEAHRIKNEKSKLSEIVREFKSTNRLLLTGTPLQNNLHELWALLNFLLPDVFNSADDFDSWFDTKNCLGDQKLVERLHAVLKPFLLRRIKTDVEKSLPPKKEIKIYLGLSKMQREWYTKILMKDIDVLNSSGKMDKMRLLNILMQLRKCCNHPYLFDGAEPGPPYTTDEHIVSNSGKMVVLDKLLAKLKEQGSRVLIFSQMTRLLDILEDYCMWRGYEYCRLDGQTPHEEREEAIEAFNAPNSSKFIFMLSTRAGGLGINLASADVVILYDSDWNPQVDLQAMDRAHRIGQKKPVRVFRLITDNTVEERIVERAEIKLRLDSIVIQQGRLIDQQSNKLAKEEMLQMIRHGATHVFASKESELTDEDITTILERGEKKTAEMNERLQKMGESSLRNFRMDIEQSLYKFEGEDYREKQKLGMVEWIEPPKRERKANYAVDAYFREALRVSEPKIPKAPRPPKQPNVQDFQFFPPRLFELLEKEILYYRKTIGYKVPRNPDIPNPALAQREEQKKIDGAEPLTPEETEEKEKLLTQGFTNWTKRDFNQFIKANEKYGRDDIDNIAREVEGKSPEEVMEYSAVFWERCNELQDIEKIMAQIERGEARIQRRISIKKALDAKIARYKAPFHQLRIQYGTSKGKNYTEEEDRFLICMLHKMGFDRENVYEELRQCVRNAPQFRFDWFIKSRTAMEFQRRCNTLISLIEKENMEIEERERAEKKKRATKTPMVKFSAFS
T9 sequence (P06748 whole entry): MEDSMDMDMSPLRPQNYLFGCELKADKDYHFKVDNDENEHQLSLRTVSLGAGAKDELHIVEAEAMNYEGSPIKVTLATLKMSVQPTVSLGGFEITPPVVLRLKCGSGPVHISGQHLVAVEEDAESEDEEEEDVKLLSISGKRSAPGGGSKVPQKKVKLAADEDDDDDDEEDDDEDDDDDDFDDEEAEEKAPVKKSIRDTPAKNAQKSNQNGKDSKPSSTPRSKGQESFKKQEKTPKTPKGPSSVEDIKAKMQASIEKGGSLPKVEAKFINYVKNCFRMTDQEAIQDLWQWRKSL
T6 sequence (O94925 55-669): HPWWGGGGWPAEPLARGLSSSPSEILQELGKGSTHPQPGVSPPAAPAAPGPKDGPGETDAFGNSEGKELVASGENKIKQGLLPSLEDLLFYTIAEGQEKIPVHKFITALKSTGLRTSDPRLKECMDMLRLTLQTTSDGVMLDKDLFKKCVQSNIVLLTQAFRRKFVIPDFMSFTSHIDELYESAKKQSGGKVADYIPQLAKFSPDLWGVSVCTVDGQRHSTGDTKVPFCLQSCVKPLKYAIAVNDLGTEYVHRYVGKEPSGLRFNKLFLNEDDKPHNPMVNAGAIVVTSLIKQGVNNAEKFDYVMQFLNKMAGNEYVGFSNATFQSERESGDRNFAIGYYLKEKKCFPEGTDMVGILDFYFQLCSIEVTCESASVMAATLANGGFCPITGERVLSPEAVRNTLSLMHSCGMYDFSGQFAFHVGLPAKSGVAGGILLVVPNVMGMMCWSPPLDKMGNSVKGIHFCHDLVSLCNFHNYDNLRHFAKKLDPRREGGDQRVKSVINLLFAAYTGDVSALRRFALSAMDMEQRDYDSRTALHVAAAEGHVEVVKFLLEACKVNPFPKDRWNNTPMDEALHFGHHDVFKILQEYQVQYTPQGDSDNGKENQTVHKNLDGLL

Cn1c2c(c(=N)c3c1CCC3)CCC2 [Compound 1, 4-methyl-2,3,4,5,6,7-hexahydrodicyclopenta[b,e]pyridin-8(1H)-imine]
Difference ([1]; Cmpd minus DMSO, -LOG(P-value) 0.713884): 3.378
iBAQ Cmpd ([1]; replicates 1-3): 19.623 and 19.0936 and 18.8692
Difference ([2]; Cmpd minus DMSO, -LOG(P-value) 0.819941): -1.912
iBAQ Cmpd ([2]; replicates 1-3): 15.6356 and 17.305 and 16.0247
Difference ([3]; Cmpd minus DMSO, -LOG(P-value) 0.867991): 2.66
iBAQ Cmpd ([3]; replicates 1-3): 18.4766 and 17.8155 and 17.9258
Difference ([4]; Cmpd minus DMSO, -LOG(P-value) 1.04359): 0.4116
iBAQ Cmpd ([4]; replicates 1-3): 19.4014 and 19.227 and 18.8879
Difference ([5]; Cmpd minus DMSO, -LOG(P-value) 0.822167): 0.7403
iBAQ Cmpd ([5]; replicates 1-3): 20.5058 and 20.3034 and 20.4789
Difference ([6]; Cmpd minus DMSO, -LOG(P-value) 0.714958): 1.117
iBAQ Cmpd ([6]; replicates 1-3): 18.1344 and 18.3969 and 16.5727
Difference ([7]; Cmpd minus DMSO, -LOG(P-value) 1.24318): 1.73
iBAQ Cmpd ([7]; replicates 1-3): 17.0232 and 15.8844 and 17.1364
Difference ([8]; Cmpd minus DMSO, -LOG(P-value) 0.703266): 1.019
iBAQ Cmpd ([8]; replicates 1-3): 16.2576 and 15.2783 and 15.0872
Difference ([9]; Cmpd minus DMSO, -LOG(P-value) 0.76043): -0.4033
iBAQ Cmpd ([9]; replicates 1-3): 27.3171 and 27.18 and 26.7127
Difference ([10]; Cmpd minus DMSO, -LOG(P-value) 0.904761): 3.386
iBAQ Cmpd ([10]; replicates 1-3): 21.59 and 20.9827 and 19.5819
